According to patent publication US10294202B2, “Pyrrolidinones as herbicides” (FMC Corporation, priority 2013, dated 2019):

Legend:
barnyardgrass = test: Test A pre-/postemergence herbicide test; format: in vivo, Echinochloa crus-galli
Text: (§1) Seeds of plant species selected from bamyardgrass (Echinochloa crus-galli), kochia (Kochia scoparia), ragweed (common ragweed, Ambrosia elatior), ryegrass, Italian (Italian ryegrass, Lolium multiflorum), crabgrass, large (large crabgrass Digitaria sanguinalis), giant foxtail (Setaria faberii), morningglory (Ipomoea spp.), pigweed (Amaranthus retroflexus), velvetleaf (Abutilon theophrasti), wheat (Triticum aestivum), and corn (Zea mays) were planted into a blend of loam soil and sand and treated preemergence with a directed soil spray using test chemicals formulated in a non-phytotoxic solvent mixture which included a surfactant. At the same time, plants selected from these crop and weed species and also blackgrass (Alopecurus myosuroides), and galium (catchweed bedstraw, Galium aparine) were planted in pots containing the same blend of loam soil and sand and treated with postemergence applications of test chemicals formulated in the same manner. Plants ranged in height from 2 to 10 cm and were in the one- to two-leaf stage for the postemergence treatment. Treated plants and untreated controls were maintained in a greenhouse for approximately 10 days, after which time all treated plants were compared to untreated controls and visually evaluated for injury. Plant response ratings, summarized in Table A, are based on a 0 to 100 scale where 0 is no effect and 100 is complete control. A dash (-) response means no test result.

corn = test: Test A pre-/postemergence herbicide test; format: in vivo, Zea mays
Text: as §1

blackgrass = test: Test A postemergence herbicide test; format: in vivo, Alopecurus myosuroides
Text: (§2) At the same time, plants selected from these crop and weed species and also blackgrass (Alopecurus myosuroides), and galium (catchweed bedstraw, Galium aparine) were planted in pots containing the same blend of loam soil and sand and treated with postemergence applications of test chemicals formulated in the same manner. Plants ranged in height from 2 to 10 cm and were in the one- to two-leaf stage for the postemergence treatment. Treated plants and untreated controls were maintained in a greenhouse for approximately 10 days, after which time all treated plants were compared to untreated controls and visually evaluated for injury. Plant response ratings, summarized in Table A, are based on a 0 to 100 scale where 0 is no effect and 100 is complete control. A dash (-) response means no test result.

ryegrass, Italian = test: Test A pre-/postemergence herbicide test; format: in vivo, Lolium multiflorum; conditions: for Plant response rating, Ryegrass, Italian: 0 to 100 scale
Text: as §1

wheat = test: Test A pre-/postemergence herbicide test; format: in vivo, Triticum aestivum
In short: (§3)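 Formulated compound (non-phytotoxic solvent, surfactant) sprayed pre- onto soil of seeded loam/sand pots or post- onto seedlings at 1–2 leaves; ~10 d greenhouse; 0–100 visual control rating versus untreated.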

ragweed = test: Test A pre-/postemergence herbicide test; format: in vivo, Ambrosia elatior; conditions: for Plant response rating, Ragweed: 0 to 100 scale
Text: as §1

galium = test: Test A postemergence herbicide test; format: in vivo, Galium aparine
Text: as §2

pigweed = test: Test A pre-/postemergence herbicide test; format: in vivo, Amaranthus retroflexus
Text: as §1

giant foxtail = test: Test A pre-/postemergence herbicide test; format: in vivo, Setaria faberii
Text: as §1

kochia = test: Test A pre-/postemergence herbicide test; format: in vivo, Kochia scoparia; conditions: for Plant response rating, Kochia: 0 to 100 scale
Text: as §1

morningglory = test: Test A pre-/postemergence herbicide test; format: in vivo, Ipomoea spp.
In short: as §3

crabgrass, large = test: Test A pre-/postemergence herbicide test; format: in vivo, Digitaria sanguinalis
In short: as §3

velvetleaf = test: Test A pre-/postemergence herbicide test; format: in vivo, Abutilon theophrasti
Text: as §1

[1] = 125 g ai/ha, visual rating, 0 to 100 scale, 0 no effect, 100 complete control, approximately 10 days, preemergence
[2] = Postemergence, 125 g ai/ha, 0 to 100 scale, 0 no effect, 100 complete control
[3] = preemergence, 500 g ai/ha, 0 to 100 scale (0 no effect, 100 complete control)
[4] = 125 g ai/ha, 0 to 100 scale, 0 no effect, 100 complete control
[5] = 125 g ai/ha, visual rating, 0 no effect, 100 complete control, approximately 10 days, preemergence
[6] = Postemergence, 125 g ai/ha, 0 no effect, 100 complete control
[7] = preemergence, 500 g ai/ha, 0 to 100 scale
[8] = Postemergence, 500 g ai/ha, 0 to 100 scale (0 no effect, 100 complete control)
[9] = Preemergence, 125 g ai/ha, visual rating on 0 to 100 scale (0 no effect, 100 complete control)
[10] = Postemergence, 1000 g ai/ha, 0 to 100 scale (0 no effect, 100 complete control)
[11] = Preemergence, 1000 g ai/ha, visual rating on 0 to 100 scale (0 no effect, 100 complete control), approx. 10 days
[12] = preemergence, 1000 g ai/ha, 0 to 100 scale (0 no effect, 100 complete control)
[13] = preemergence, 1000 g ai/ha, 0 to 100 scale
[14] = Postemergence, 125 g ai/ha, visual rating on 0 to 100 scale (0 no effect, 100 complete control), approx. 10 days

Cc1ccc(C2CNC(=O)C2C(=O)Nc2ccc(F)cc2F)cc1F (racemic) [Compound 145]
40: Plant response rating, Foxtail, Giant (giant foxtail; [2])
80: Plant response rating, Barnyardgrass (barnyardgrass; [1])
90: Barnyardgrass plant response rating (0 to 100 scale, 0 is no effect, 100 is complete control) (barnyardgrass; Postemergence, 500 g ai/ha) | Plant response rating, Barnyardgrass (barnyardgrass; [3]) | Plant response rating, Foxtail, Giant (giant foxtail; [7])
20: Ragweed plant response rating (0 to 100 scale, 0 is no effect, 100 is complete control) (ragweed; Postemergence, 500 g ai/ha) | Plant response rating, Galium (galium; [4]) | Kochia plant response rating (0 to 100 scale, 0 is no effect, 100 is complete control) (kochia; Postemergence, 500 g ai/ha)
70: Plant response rating, Barnyardgrass (barnyardgrass; [2]) | Plant response rating, Foxtail, Giant (giant foxtail; [1]) | Foxtail, Giant plant response rating (0 to 100 scale, 0 is no effect, 100 is complete control) (giant foxtail; Postemergence, 500 g ai/ha)
0: Plant response rating, Corn (corn; [2]) | Corn plant response rating (0 to 100 scale, 0 is no effect, 100 is complete control) (corn; Postemergence, 500 g ai/ha) | Plant response rating, Blackgrass (blackgrass; [4]) | Plant response rating, Ryegrass, Italian (ryegrass, Italian; [5]) | Plant response rating, Ryegrass, Italian (ryegrass, Italian; [6]) | Ryegrass, Italian plant response rating (0 to 100 scale, 0 is no effect, 100 is complete control) (ryegrass, Italian; Postemergence, 500 g ai/ha) | Plant response rating, Ryegrass, Italian (ryegrass, Italian; preemergence, 500 g ai/ha) | Plant response rating, Wheat (wheat; [2]) | Wheat plant response rating (0 to 100 scale, 0 is no effect, 100 is complete control) (wheat; Postemergence, 500 g ai/ha) | Plant response rating, Ragweed (ragweed; [5]) | Plant response rating, Ragweed (ragweed; [6]) | Plant response rating, Ragweed (ragweed; preemergence, 500 g ai/ha) | Plant response rating, Pigweed (pigweed; [1]) | Plant response rating, Pigweed (pigweed; [2]) | Pigweed plant response rating (0 to 100 scale, 0 is no effect, 100 is complete control) (pigweed; Postemergence, 500 g ai/ha) | Plant response rating, Pigweed (pigweed; [7]) | Plant response rating, Kochia (kochia; [5]) | Plant response rating, Kochia (kochia; [6]) | Plant response rating, Kochia (kochia; preemergence, 500 g ai/ha)
50: Galium plant response rating (0 to 100 scale, 0 is no effect, 100 is complete control) (galium; 500 g ai/ha)
30: Blackgrass plant response rating (0 to 100 scale, 0 is no effect, 100 is complete control) (blackgrass; 500 g ai/ha)

O=C1NCC(c2cc(Cl)cc(Cl)c2)C1C(=O)Nc1ccccc1F (racemic) [Compounds 90]
80: Plant response rating, Crabgrass, Large (crabgrass, large; [7])
40: Plant response rating, Foxtail, Giant (giant foxtail; [2])
30: Plant response rating, Barnyardgrass (barnyardgrass; [2]) | Barnyardgrass plant response rating (barnyardgrass; [9]) | Plant response rating, Corn (corn; [8])
50: Plant response rating, Crabgrass, Large (crabgrass, large; [2])
70: Plant response rating, Barnyardgrass (barnyardgrass; [8]) | Plant response rating, Barnyardgrass (barnyardgrass; [3]) | Plant response rating, Foxtail, Giant (giant foxtail; [8]) | Plant response rating, Foxtail, Giant (giant foxtail; [7]) | Plant response rating, Crabgrass, Large (crabgrass, large; [8]) | Crabgrass, Large plant response rating (crabgrass, large; [9])
20: Plant response rating, Pigweed (pigweed; [8])
60: Foxtail, Giant plant response rating (giant foxtail; [9])
0: Plant response rating, Corn (corn; [2]) | Corn plant response rating (corn; [9]) | Plant response rating, Corn (corn; [7]) | Plant response rating, Wheat (wheat; [2]) | Plant response rating, Wheat (wheat; [8]) | Wheat plant response rating (wheat; [9]) | Plant response rating, Wheat (wheat; [7]) | Plant response rating, Pigweed (pigweed; [2]) | Pigweed plant response rating (pigweed; [9]) | Plant response rating, Pigweed (pigweed; [7]) | Plant response rating, Morningglory (morningglory; [2]) | Plant response rating, Morningglory (morningglory; [8]) | Morningglory plant response rating (morningglory; [9]) | Plant response rating, Morningglory (morningglory; [7]) | Plant response rating, Velvetleaf (velvetleaf; [2]) | Plant response rating, Velvetleaf (velvetleaf; [8]) | Velvetleaf plant response rating (velvetleaf; [9]) | Plant response rating, Velvetleaf (velvetleaf; [7])

O=C1NCC(c2ccc(F)c(F)c2)C1C(=O)Nc1ccncc1F (stereo not shown) [Compound 22]
30: Plant response rating, Foxtail, Giant (giant foxtail; [11])
0: Plant response rating, Barnyardgrass (barnyardgrass; [10]) | Plant response rating, Barnyardgrass (barnyardgrass; [11]) | Plant response rating, Corn (corn; [10]) | Plant response rating, Corn (corn; [11]) | Plant response rating, Wheat (wheat; [10]) | Plant response rating, Wheat (wheat; [11]) | Plant response rating, Pigweed (pigweed; [10]) | Plant response rating, Foxtail, Giant (giant foxtail; [10]) | Plant response rating, Morningglory (morningglory; [10]) | Plant response rating, Morningglory (morningglory; [11]) | Plant response rating, Crabgrass, Large (crabgrass, large; [10]) | Plant response rating, Velvetleaf (velvetleaf; [10]) | Plant response rating, Velvetleaf (velvetleaf; [11])
70: Plant response rating, Crabgrass, Large (crabgrass, large; [11])

CN(C(=O)C1C(=O)NCC1c1ccc(F)c(F)c1)c1ccccc1F (stereo not shown) [Compound 24]
60: Plant response rating, Velvetleaf (velvetleaf; [11])
0: Plant response rating, Barnyardgrass (barnyardgrass; [10]) | Plant response rating, Barnyardgrass (barnyardgrass; [11]) | Plant response rating, Corn (corn; [10]) | Plant response rating, Corn (corn; [11]) | Plant response rating, Wheat (wheat; [10]) | Plant response rating, Wheat (wheat; [11]) | Plant response rating, Pigweed (pigweed; [10]) | Plant response rating, Pigweed (pigweed; [11]) | Plant response rating, Foxtail, Giant (giant foxtail; [10]) | Plant response rating, Morningglory (morningglory; [10]) | Plant response rating, Morningglory (morningglory; [11]) | Plant response rating, Velvetleaf (velvetleaf; [10])
70: Plant response rating, Crabgrass, Large (crabgrass, large; [11])
40: Plant response rating, Foxtail, Giant (giant foxtail; [11])
30: Plant response rating, Crabgrass, Large (crabgrass, large; [10])

C#CCN(C(=O)C1C(=O)NCC1c1ccc(F)c(F)c1)c1ccccc1[N+](=O)[O-] (stereo not shown) [Compound 265]
0: Plant response rating, Barnyardgrass (barnyardgrass; [10]) | Plant response rating, Barnyardgrass (barnyardgrass; [12]) | Plant response rating, Corn (corn; [10]) | Plant response rating, Corn (corn; [13]) | Plant response rating, Wheat (wheat; [10]) | Plant response rating, Wheat (wheat; [13]) | Plant response rating, Pigweed (pigweed; [10]) | Plant response rating, Pigweed (pigweed; [13]) | Plant response rating, Foxtail, Giant (giant foxtail; [10]) | Plant response rating, Foxtail, Giant (giant foxtail; [13]) | Plant response rating, Morningglory (morningglory; [10]) | Plant response rating, Morningglory (morningglory; [13]) | Plant response rating, Crabgrass, Large (crabgrass, large; [10]) | Plant response rating, Crabgrass, Large (crabgrass, large; [13]) | Plant response rating, Velvetleaf (velvetleaf; [10]) | Plant response rating, Velvetleaf (velvetleaf; [13])

C=CCN(C(=O)C1C(=O)NCC1c1ccc(F)c(F)c1)c1ccccc1[N+](=O)[O-] (stereo not shown) [Compound 266]
20: Plant response rating, Morningglory (morningglory; [14])
40: Plant response rating, Wheat (wheat; [14]) | Plant response rating, Pigweed (pigweed; [14])
0: Plant response rating, Barnyardgrass (barnyardgrass; [10]) | Plant response rating, Barnyardgrass (barnyardgrass; [12]) | Plant response rating, Corn (corn; [10]) | Plant response rating, Corn (corn; [13]) | Plant response rating, Wheat (wheat; [10]) | Plant response rating, Wheat (wheat; [13]) | Plant response rating, Pigweed (pigweed; [10]) | Plant response rating, Pigweed (pigweed; [13]) | Plant response rating, Foxtail, Giant (giant foxtail; [10]) | Plant response rating, Foxtail, Giant (giant foxtail; [13]) | Plant response rating, Morningglory (morningglory; [10]) | Plant response rating, Morningglory (morningglory; [13]) | Plant response rating, Crabgrass, Large (crabgrass, large; [10]) | Plant response rating, Crabgrass, Large (crabgrass, large; [13]) | Plant response rating, Velvetleaf (velvetleaf; [10]) | Plant response rating, Velvetleaf (velvetleaf; [13])
